Data on 7 molecules can be found in publication PMC13168289, “Potent acridone antimalarial against all three life stages of Plasmodium” (Nature Communications, 2026).

Test [1] has as its system P. falciparum mutant T111 lines. The test is described as follows: drug susceptibility of T111-selected cyt b mutant lines. Type of test: cell-based, Plasmodium falciparum. How it is done:
DNA extractions were performed on clonal parasites using the QIAamp DNA extraction kit (QIAGEN Inc, Valencia, CA) or ZYMO Quick gDNA Miniprep kit (Zymo Research Corp, Irvine, CA). For sequencing of the open reading frame of pfcytb, PCR was performed with genomic DNA using forward and reverse flanking primers for cyt b primer 1: 5’-[…]-3’ and primer 2: 5’-[…]-3’. PCR products were subjected to enzymatic cleanup with ExoSAP-IT (Thermo Fisher Scientific) and sent for Sanger sequencing (Eurofins Genomics, Louisville, KY) with PCR primer 2 paired with an internal forward primer: 5’-[…]-3’ and an internal reverse primer: 5’-[…]-3’. Sequences were assembled using 4Peaks software (Nucleobytes, Amsterdam, Netherlands) and aligned with Clustal Omega (EMBL-EBI). For sequencing of the open reading frame of pfdhodh, PCR was performed with genomic DNA using forward primer: 5’-[…]-3’ and reverse primer: 5’-[…]-3’. PCR products were prepared for Sanger sequencing and analyzed as described above, except using two forward primers: 5’-[…]-3’ and 5’-[…]-3’ and with two reverse primers: 5’-[…]-3’ and 5’-[…]-3’.
(§1) Drug susceptibility assays against P. falciparum strains were performed using a SYBR Green based assay. D6 and Dd2 were obtained from MR4. Tm90-C2B was obtained from WRAIR. Dd2-D1^I22L and ELQ-300 were obtained from VAPORHCS. D10yDHODH was obtained as a courtesy from Dr. Akhil Vaidya at Drexel University. P. yoelii ATV^r and ELQ-300^r clones were obtained from VAPORHCS.

Test [2] concerns P. falciparum K13 mutant parasites SP045 and SP060. The test is described as follows: Growth, Resistance, and Recovery Assay (GRRA), ring-stage survival dose-response. The class given is cell-based, Plasmodium falciparum. The settings on record: Plasmodium falciparum. As for the experimental part: These isolates carry the validated R561H Kelch 13 propeller domain mutation associated with delayed parasite clearance in East Africa[24],[25]. Using the 6-hour GRRA[23], all strains were thawed, frozen, and cultured under standard conditions at 5% hematocrit. Samples parasitemia was measured by flow cytometry. Parasite cultures that were predominantly segmented schizonts were synchronized using a single Percoll layer method. Cultures that met quality control requirements of ≥70% early ring stage and ≥1% parasitemia were adjusted to 0.25% parasitemia at 2% hematocrit. […] The GRRA50 implements 11 RSA experiments to generate a dose-response curve for each parasite line per drug. Master mixes of samples were aliquoted into 2 technical replicates of 275 µL each in 96 well plates (2 treated each condition, 2 untreated). At 6 h post-exposure, 200 µL of media was removed from the wells and replaced with 200 µL of incomplete media and spun for 3 min at 800 g to rinse. The rinse was repeated a total of 3 times, after which 200 µL complete media was added back to the wells. At 120 h post-treatment, thin microscopy smears were made using 2 µL of culture for each sample and 20 µL of culture was transferred to PCR strips and stored at −80 °C until qPCR quantification. A standard curve of known parasitemia was generated using the NF54 parasite line for each qPCR quantification for conversion from Cycle threshold (Ct) to parasitemia and comparison between qPCR experiments. Replicate viability was calculated according to the GRRA method. Each individual reaction mixture and cycling conditions were set to previously used methods. Ct was calculated using AB1 SDA 2.4.1. software. […] We find that commonly reported thresholds (cutoffs) for resistance (e.g., 1% survival in traditional RSA) may not be broadly applicable, especially with lower thresholds subject to potential artifacts due to markedly low survival rates of ART-sensitive and low-level ART-resistant parasites. Regular RSA relies on a single drug concentration, 700 nM. To gain a more fine-scale quantification to compare drug susceptibilities with relevance to therapeutic success and failure, we developed the GRRA50 to generate full dose-response curves for precise quantitative comparisons.

Test [3] deals with P. falciparum D6, Dd2, Tm90-C2B, Dd2-D1^I22L, D10yDHODH. The test is described as follows: microbe, parasite or virus in culture. The class given is cell-based, Plasmodium falciparum. As to conditions: read-out: in vitro IC50 vs P. falciparum. As for the experimental part:
as §1

The test system of test [4] is P. yoelii wild type, ATV^r and ELQ-300^r clones. Put plainly: 4-day suppression model with ATV- and ELQ-300-resistant clones. As to conditions: (95% CI). Type of test: in vivo, P. yoelii in CF1 mice.
Text: Animals were housed at the VAPORHCS in Thoren Maxi-Miser microisolator cages (78 sq. in. floor space) with a maximum density of five females or four males per cage. Cages were maintained on a 12-h light/dark cycle and provided with autoclaved nesting materials (nestlets) for environmental enrichment. All mice had ad libitum access to food and water. Four- to five-week-old female and male outbred CF1 mice (Charles River Laboratories, Raleigh, NC, USA) were randomly assigned to treatment and control groups using a simple randomization procedure (e.g., computer-generated random numbers) to ensure balanced distribution of baseline body weights and starting parasitemia levels across all cohorts. Groups of four mice (n = 4, mean body weight of each group was ~30 g) were infected intravenously with 3.5 × 10^4 P. yoelii (Kenya strain, MRA-428) from a donor animal. Drug administration commenced the day after the animals were inoculated (Day 1). The test drug or the drug combination was dissolved in PEG-400 and administered by oral gavage once daily for 4 successive days in the 4-day suppression model, but only once on Day 1 in the single-dose cure model. Blood was collected via the tail vein with the aid of a syringe needle on Day 5 and then at weekly intervals through Day 28. Blood films were Giemsa-stained and examined microscopically to determine the level of parasitemia. All mice were observed daily to assess clinical signs. Animals with observable parasitemia following the experiments were euthanized; animals cleared of parasitemia from their bloodstream were observed daily with assessment of parasitemia performed weekly until Day 28, at which point, the animal(s) were scored as cured of the infection and then humanely euthanized. All treated mice with a negative smear on Day 28 were considered cured (100% protection).
as §1

Setting [5] is: Plasmodium falciparum, DD2, Supplementary Table 4, Dd2.
The mark [6] stands for this setting: Plasmodium falciparum, DD2, Supplementary Table 4, Dd2-A131S-140I-259L-264L.
The mark [7] stands for this setting: Plasmodium falciparum, DD2, Supplementary Table 4, Dd2-B131S-140I-259L-264L.
The mark [8] stands for this setting: Plasmodium falciparum, DD2, Supplementary Table 4, Dd2-D0119L-131S-259L (pfdhodh mutation).
Setting [9] is: Plasmodium falciparum, DD2, Supplementary Table 4, Dd2-D1131S-140I-259L (pfdhodh mutation).
Where [10] appears, read: Dd2-A^131S-140I-259L-264L, read-out: inhibition IC50 vs P. falciparum.
Setting [11] is: Dd2-A^131S-140I-259L, read-out: inhibition IC50 vs P. falciparum.
[12] abbreviates: Dd2-B^87V-131S-140I-259L, read-out: inhibition IC50 vs P. falciparum.
Setting [13] is: Dd2-B^131S-140I-259L-264L, read-out: inhibition IC50 vs P. falciparum.
[14] abbreviates: Dd2-C0^119L-131S-259L (pfdhodh mutation), read-out: inhibition IC50 vs P. falciparum.
Where [15] appears, read: Dd2-C1^131S-140I-259L (pfdhodh mutation), read-out: inhibition IC50 vs P. falciparum.
Where [16] appears, read: Dd2, read-out: inhibition IC50 vs P. falciparum.
[17] abbreviates: Dd2^131S-259L, read-out: inhibition IC50 vs P. falciparum.
[18] abbreviates: Dd2^131S, read-out: inhibition IC50 vs P. falciparum.
Where [19] appears, read: Dd2^259L, read-out: inhibition IC50 vs P. falciparum.

Read-outs that look alike come from different tables or passages of the source. Where only a bound is given, the exact number is not on record here.

As to `C[C@H]1[C@@H](O)O[C@@H]2O[C@@]3(C)CC[C@H]4[C@H](C)CC[C@@H]1[C@@]24OO3` [DHA, dihydroartemisinin], the IC50 was determined as 1.7 ± 0.14 nM in test [1] (setting [5]); 2.3 ± 0.25 nM in test [1] (setting [6]); 2.3 ± 0.18 nM in test [1] (setting [7]); 2.2 ± 0.18 nM in test [1] (setting [8]); 2.4 ± 0.2 nM in test [1] (setting [9]); 7.7 nM in test [2] (read-out: GRRA50, SP045 (K13 V555A, ART-S)). In addition, the IC50 in test [2] (read-out: GRRA50, SP060 (K13 R561H, ART-R)) was determined as 25 nM.
With `Cc1cc(Nc2ccc(S(F)(F)(F)(F)F)cc2)n2nc(C(C)(F)F)nc2n1` [DSM265], the IC50 came to 3.2 ± 0.3 nM in test [1] (Plasmodium falciparum, DD2, read-out: inhibition IC50 vs P. falciparum, Dd2); 3.2 ± 0.52 nM in test [1] (Plasmodium falciparum, DD2, read-out: inhibition IC50 vs P. falciparum, Dd2-A^131S-140I-259L); 1.2 ± 0.075 nM in test [1] (Plasmodium falciparum, DD2, read-out: inhibition IC50 vs P. falciparum, Dd2-A^131S-140I-259L-264L); 3.5 ± 0.37 nM in test [1] (Plasmodium falciparum, DD2, read-out: inhibition IC50 vs P. falciparum, Dd2-B^87V-131S-140I-259L); 2.8 ± 0.3 nM in test [1] (Plasmodium falciparum, DD2, read-out: inhibition IC50 vs P. falciparum, Dd2-B^131S-140I-259L-264L); 795 ± 235 nM in test [1] (Plasmodium falciparum, DD2, read-out: inhibition IC50 vs P. falciparum, Dd2-C0^119L-131S-259L (pfdhodh mutation)). For the same molecule, the IC50 amounted to 563 ± 203 nM in test [1] (Plasmodium falciparum, DD2, read-out: inhibition IC50 vs P. falciparum, Dd2-C1^131S-140I-259L (pfdhodh mutation)); 1.9 ± 0.22 nM in test [1] (Plasmodium falciparum, DD2, read-out: inhibition IC50 vs P. falciparum, Dd2^131S); 2.8 ± 1.2 nM in test [1] (Plasmodium falciparum, DD2, read-out: inhibition IC50 vs P. falciparum, Dd2^131S-259L); 3.3 ± 1 nM in test [1] (Plasmodium falciparum, DD2, read-out: inhibition IC50 vs P. falciparum, Dd2^259L).
Regarding `COc1cc2[nH]c(C)c(-c3ccc(Oc4ccc(OC(F)(F)F)cc4)cc3)c(=O)c2cc1Cl` [ELQ-300], the IC50 in test [1] (setting [10]) is 35 ± 3.2 nM; in test [1] (setting [11]), 52 ± 5.5 nM; in test [1] (setting [12]), 67 ± 4.6 nM; in test [1] (setting [13]), 25 ± 2.7 nM; in test [1] (setting [14]), 221 ± 50 nM; in test [1] (setting [15]) it was 225 ± 73 nM. Moreover, the IC50 in test [1] (setting [16]) is 38 ± 5 nM; in test [1] (setting [17]) it was 26 ± 5.2 nM; in test [1] (setting [18]), 20 ± 5.8 nM; in test [1] (setting [19]), 23 ± 4.3 nM; in test [3] (D6) it was 3.5 ± 0.23 nM; in test [3] (D10yDHODH), over 2500 nM. Further, the IC50 in test [3] (Dd2-D1^I22L (ELQ-300-resistant)) came to 245 ± 27 nM; in test [3] (Dd2), 3.1 ± 0.15 nM; in test [3] (Tm90-C2B (cyt b Y268S, ATV-resistant)), 1.3 ± 0.084 nM. Also, the ED50 in test [4] (P. yoelii ATVrY268S) is reported as 0.040 (0.036–0.044) mg/kg/day; in test [4] (P. yoelii ELQ-300rI22L), 1.27 (0.97–1.67) mg/kg/day; in test [4] (P. yoelii wild type), 0.031 (0.029–0.033) mg/kg/day.
On to `CCCCN(CCCC)CC(O)c1cc(Cl)cc2c1-c1ccc(Cl)cc1/C2=C/c1ccc(Cl)cc1` (centres unmarked) [LUM, lumefantrine], for which the IC50 in test [1] (setting [5]) worked out at 1.2 ± 0.098 nM; in test [1] (setting [6]), 1.7 ± 0.086 nM; in test [1] (setting [7]) it was 1.7 ± 0.36 nM; in test [1] (setting [8]) it was 1.5 ± 0.11 nM; in test [1] (setting [9]), 2.4 ± 0.11 nM.
As for `CO/C(=C/C(N)=O)[C@H](C)[C@H](/C=C/c1csc(-c2csc([C@@H](C)/C=C/C=C/C(C)C)n2)n1)OC` [MYX, myxothiazol], the IC50 was found to be 16 ± 4.1 nM in test [1] (setting [10]); 192 ± 11 nM in test [1] (setting [11]); 373 ± 11 nM in test [1] (setting [12]); 34 ± 3.3 nM in test [1] (setting [13]); 1540 ± 110 nM in test [1] (setting [14]); 723 ± 141 nM in test [1] (setting [15]). Besides, the IC50 amounted to 24 ± 3.4 nM in test [1] (setting [16]), 975 ± 139 nM in test [1] (setting [17]), 383 ± 38 nM in test [1] (setting [18]) and 64 ± 13 nM in test [1] (setting [19]).
Consider `Clc1ccc2c(N3CCN(CCCN4CCN(c5ccnc6cc(Cl)ccc56)CC4)CC3)ccnc2c1` [PIP, piperaquine], for which the IC50 came out at 7.4 ± 0.57 nM in test [1] (setting [5]); 9.9 ± 0.65 nM in test [1] (setting [6]); 12 ± 2.3 nM in test [1] (setting [7]); 11 ± 1.2 nM in test [1] (setting [8]); 9.1 ± 1.7 nM in test [1] (setting [9]).
Regarding ELQ-400, the IC50 amounted to 80 ± 15 nM in test [1] (setting [10]); 133 ± 17 nM in test [1] (setting [11]); 177 ± 3.1 nM in test [1] (setting [12]); 126 ± 32 nM in test [1] (setting [13]); 255 ± 62 nM in test [1] (setting [14]); 501 ± 101 nM in test [1] (setting [15]). For the same molecule, the IC50 is 4 ± 0.45 nM in test [1] (setting [16]), 28 ± 13 nM in test [1] (setting [17]), 4.2 ± 0.41 nM in test [1] (setting [18]) and 24 ± 6.7 nM in test [1] (setting [19]).
